Tests used:
E4bp4 = assay: RT-qPCR relative expression of E4bp4 in cultured HPCs; type: cell-based, mouse
Method: FIG. 8: HPCs were cultured with or without 5 μM SR8278 added on Day 2. At Day 3, 4 and 5, cells were harvested in order to quantify their relative […] by RT-qPCR. The graphs show relative expression of (A) E4bp4, (B) Id2 and (C) Eomes normalized to the housekeeping gene, Hprt.
HPCs isolated from a WT mouse were cultured as previously (FIG. 2) but the cells were harvested and analysed using RT-qPCR on Day 3, 4 and 5. The relative expression of the E4bp4, Id2 and Eomes genes was compared to the housekeeping gene, Hprt. At Day 4, E4bp4, Id2 and Eomes expression was higher in SR8278 treated samples when compared to the ‘No drug’ control (FIG. 8). The increase in E4bp4 expression disappeared at Day 5 but the increase of Id2 expression remained (FIG. 8B). The upregulation of E4bp4 and its downstream targets happens in a matter of hours and only stays high for a defined period of time.
RNA was extracted using Qiagen RNeasy Micro Kit according to the manufacture's protocol (Qiagen). Centrifugation was done at 8000 g for 15 seconds and the flow through discarded. Briefly, 350 μl of Buffer RLT+10% β-Mercaptoethanol were added to the harvested cells. […] The concentration of RNA in each sample was measured using Nanodrop, and all samples were diluted to the same working concentration. […]

Human CD34+ cells = assay: Toxicity to human CD34+ cells in NK cell culture; type: cell-based
Description: The hypothesis that SR8278 increases NK cells production would not have any potential therapeutic value if it was not also true for human NK cell production. Therefore, the effect of SR8278 on human NK cell production from human HPCs was examined. Human HPCs were obtained as the CD34^+ population purified from umbilical cord blood from collaborators at the Anthony Nolan Research Institute, London. Human NK cell development goes through a similar developmental pathway to mouse NK cell development. […]
CD34^+ umbilical cord blood progenitor cells were provided by Anthony Nolan Research Institute, University College London. […] Cells were thawed, counted and then plated on EL08.1D2 plates prepared previously at a concentration of 1000 cells/well in human NK cells differentiation medium (Alpha-MEM plus 20% Human AB serum (Invitrogen), 50 μM β-Mercaptoethanol and 1% P/S along with 5 ng/ml human-IL-3 (Peprotech), 20 ng/ml human-IL-7 (Peprotech), 10 ng/ml human-Flt3-L (Peprotech), 20 ng/ml human-SCF (Peprotech) and 10 ng/ml human-IL-15 (Peprotech). Note that human-IL-3 is only needed for the first week of culture. Cells were left in the culture at 37° C., 5% CO2 for 14 or 16 days with a change of human NK differentiation medium at day 7 and 12.

CCOC(=O)C1Cc2ccccc2CN1C(=O)c1ccc(SC)s1 (stereo not shown) [SR8278, 1,2,3,4-Tetrahydro-2-[[5-(methylthio)-2-thienyl]carbonyl]-3-isoquinolinecarboxylic acid ethyl ester]
E4bp4 expression relative to Hprt, compared to 'No drug' control (E4bp4; 5 μM added Day 2, harvested Day 4): higher | increase in E4bp4 expression (E4bp4; 5 μM added Day 2, harvested Day 5): disappeared | toxicity to human CD34+ cells (Human CD34+ cells; 5 μM): not toxic | toxicity to human CD34+ cells (Human CD34+ cells; 10 μM): completely toxic
